Read-outs that look alike come from different tables or passages of the source.

The source of these data is patent US7612087B2, “Heterocyclic compounds as inhibitors of beta-lactamases” (Novexel, priority 2002, dated 2009).

For one test, the target named is T1, β-lactamase P99 (Enterobacter cloacae, UniProt P05364).
T1 construct: The β-lactamases are isolated from bacterial strains which are resistant to penicillins and cephalosporins; endogenous in cells; host or cells: Enterobacter cloacae 293HT6 (natural producer; French-press lysate, 100,000 g supernatant)
In words: biochemical. The note with it: 100 μM Nitrocefin, 50 mM sodium phosphate buffer pH7.0, 37° C.; read-out: IC50 nM/P99. As for the experimental part:
(§1) A. Preparation of the β-lactamases Tem-1 and P99
(§2) The β-lactamases are isolated from bacterial strains which are resistant to penicillins and cephalosporins (Tem1 and P99 are produced by E.coli 250HT21 and E.Cloacae 293HT6 respectively).
(§3) The bacteria are cultured at 37° C. in heart-brain culture at 37 g/l (DIFCO). They are harvested at the end of the exponential phase, cooled down and centrifuged. The bacterial pellets are taken up in sodium phosphate buffer 50 mM, pH 7.0 and centrifuged again. The bacteria are taken up in two volumes of the same buffer and lyzed using a French-Press maintained at 4° C. After centrifugation for 1 hour at 100,000 g, at 4° C., the supernatants containing the soluble fraction of the bacterial extracts are recovered and frozen at −80° C.
(§4) The method uses Nitrocefin (OXOID), cephalosporin chromogene as substrate, of which the product hydrolyzed by the B-lactamases is red and absorbs at 485 nm. Beta-lactamase activity is determined kinetically by measurement of the absorbance variation at 485 nm resulting from the hydrolysis of the substrate using a plate spectrophotometer (Spectra Max More Molecular Devices). The experiments are carried out at 37° C. The quantity of enzyme was normalized and the measurements are carried out at initial speed.
(§5) Two measurements were carried out, without preincubation and with preincubation of the enzyme and inhibitor (5 mn), in order to test the irreversibility of the reaction. The products are tested at 6 or 8 concentrations in duplicate. The reaction mixture contains 100 μM of Nitrocefin and 50 mM sodium phosphate buffer pH7.0.
(§6) The hydrolysis speeds are measured with and without inhibitor. The concentration of inhibitor which inhibits by 50% the hydrolysis reaction of Nitrocefin by the enzyme (CI50) is determined. The data is processed using GraFit software (Erathycus Software).

In a further test the test system is E. coli 250HT22 (Tem2). Nature of the test: MIC, micro-dilution in liquid medium, β-lactamine with product at 5 mg/l. The class given is cell-based. The note with it: 24 hours at 37° C.; for MIC: Escherichia coli. As to the method:
(§7) The operation is carried out as follows, using the so-called micro-dilution in liquid medium method.
(§8) A series of concentrations of the β-lactamine is prepared in the presence of a constant concentration (5 mg/l) of the product to be studied, each is then seeded with various bacterial strains.
(§9) After incubation for 24 hours in a heating chamber at 37° C., the growth inhibition is evaluated by the absence of any bacterial development, which allows the minimal inhibitory concentrations (MIC) for each strain to be determined, expressed in milligrams/l.
A general note: Dilution methods test growth across graded concentrations, often in twofold steps.

The subject of test [1] is S. aureus 011GO66 (PeniR). The test is described as above. The class given is cell-based. To be noted: 24 hours at 37° C.; for MIC: Staphylococcus aureus. As for the experimental part:
as §7, §8, §9

Test [2] relates to E. cloacae 293HT6 (Class C). The description is as above. The class given is cell-based. The note with it: 24 hours at 37° C.; for MIC: Enterobacter cloacae. As to the method:
as §7, §8, §9

The next test has as its system E. coli 250HT21 (Tem1). The test is described as above. The class given is cell-based. To be noted: 24 hours at 37° C.; for MIC: Escherichia coli. As for the experimental part:
as §7, §8, §9

Another test has as its system E. coli 250BE1 (SHV4). Described as above. The class given is cell-based. To be noted: 24 hours at 37° C.; for MIC: Escherichia coli. As for the experimental part: as §7, §8, §9
For another test, the system named is E. coli 250HT26 (SHV1). Described as above. The class given is cell-based. To be noted: 24 hours at 37° C.; for MIC: Escherichia coli. As for the experimental part:
as §7, §8, §9

The next test has as its system E. coli 250SJ1 (Tem7). The description is as above. The test is classed as cell-based. To be noted: 24 hours at 37° C.; for MIC: Escherichia coli. As for the experimental part:
as §7, §8, §9

For test [3], the system named is E. coli 250HT23 (Class D). The test is described as above. The test is classed as cell-based. The note with it: 24 hours at 37° C.; for MIC: Escherichia coli. As for the experimental part:
as §7, §8, §9

The next test has as its target T2, β-lactamase TEM1 (Escherichia coli, UniProt P62593).
T2 construct: The β-lactamases are isolated from bacterial strains which are resistant to penicillins and cephalosporins; endogenous in cells; host or cells: E. coli 250HT21 (natural producer; French-press lysate, 100,000 g supernatant)
In words: Inhibition of isolated β-lactamase Tem-1 (Nitrocefin hydrolysis). The class given is biochemical, E.coli 250HT21. The note with it: 100 μM Nitrocefin, 50 mM sodium phosphate buffer pH7.0, 37° C. As for the experimental part: as §1, §2, §3, §4, §5, §6

The subject of another test is E. coli 250CF1 (Tem3). Nature of the test: microbe, parasite or virus in culture. The class given is cell-based. To be noted: 24 hours at 37° C.; for MIC: Escherichia coli. As for the experimental part: as §7, §8, §9
The test system of test [4] is P. aeruginosa 391HT8 (PSE). In words: MIC, micro-dilution in liquid medium, β-lactamine with product at 5 mg/l. The test is classed as cell-based. The note with it: Pseudomonas aeruginosa, 24 hours at 37° C. As to the method: as §7, §8, §9
The subject of test [5] is P. aeruginosa 391HT7 (PSE). The description is as above. The class given is cell-based. To be noted: Pseudomonas aeruginosa, 24 hours at 37° C. As to the method: as §7, §8, §9
A further test has as its system Serratia 301HT6. Described as above. The test is classed as cell-based. The note with it: Trial 10, 301HT6 Serratia, 24 hours at 37° C. As for the experimental part:
as §7, §8, §9

T2 sequence (P62593 24-286 limits assumed): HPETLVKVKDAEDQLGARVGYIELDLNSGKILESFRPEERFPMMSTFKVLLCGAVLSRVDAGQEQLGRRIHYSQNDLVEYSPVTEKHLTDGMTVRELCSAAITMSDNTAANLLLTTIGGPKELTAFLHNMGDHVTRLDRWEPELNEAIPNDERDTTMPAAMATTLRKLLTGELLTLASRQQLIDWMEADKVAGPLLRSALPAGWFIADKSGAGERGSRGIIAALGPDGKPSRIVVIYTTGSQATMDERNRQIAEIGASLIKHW
T1 sequence (P05364 21-381): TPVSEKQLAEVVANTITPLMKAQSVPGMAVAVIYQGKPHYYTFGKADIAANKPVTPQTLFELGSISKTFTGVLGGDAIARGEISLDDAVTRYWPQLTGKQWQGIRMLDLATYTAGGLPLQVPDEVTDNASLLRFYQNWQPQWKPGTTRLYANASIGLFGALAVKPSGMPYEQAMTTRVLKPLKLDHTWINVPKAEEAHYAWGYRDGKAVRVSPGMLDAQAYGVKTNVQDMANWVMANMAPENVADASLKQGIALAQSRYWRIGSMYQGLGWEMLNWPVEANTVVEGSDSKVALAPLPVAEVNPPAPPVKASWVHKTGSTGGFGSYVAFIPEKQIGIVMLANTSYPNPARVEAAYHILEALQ

Consider `O=C(OCCc1ccncc1)[C@H]1CC[C@@H]2CN1C(=O)N2OS(=O)(=O)[O-].[Na+]` (relative stereo) [Example 49, sodium salt of trans 2-(4-pyridinyl)ethyl 7-oxo-6-(sulphooxy)-1,6-diazabicyclo[3.2.1]octane-2-carboxylate], for which the IC50 was determined as 98 nM at β-lactamase P99 and 8.2 nM at β-lactamase TEM1. The “MIC of Cefotaxime in combination with the compound” value with E. coli 250HT22 (Tem2) (compound at 5 mg/l, Trial 3, 250HT22 E. coli Tem2) is “<=0.04 μg/ml”; in test [1] (compound at 5 mg/l, Trial 1, 011GO66 S. aureus PeniR), 2.5 µg/mL; in the test with E. coli 250HT21 (Tem1) (compound at 5 mg/l, Trial 2, 250HT21 E. coli Tem1), “<=0.04 μg/ml”; in the test on E. coli 250BE1 (SHV4) (compound at 5 mg/l, Trial 7, 250BE1 E. coli SHV4), “<=0.04 μg/ml”; with E. coli 250HT26 (SHV1) (compound at 5 mg/l, Trial 6, 250HT26 E. coli SHV1) it was “<=0.04 μg/ml”; in the test with E. coli 250SJ1 (Tem7) (compound at 5 mg/l, Trial 5, 250SJ1 E. coli Tem7) it was “<=0.04 μg/ml”. Further, the “MIC of Cefotaxime in combination with the compound” value in test [3] (compound at 5 mg/l, Trial 8, 250HT23 E. coli Class D) was “<=0.04 μg/ml”; with E. coli 250CF1 (Tem3) (compound at 5 mg/l, Trial 4, 250CF1 E. coli Tem3), 0.08 µg/mL. Besides, the “MIC of Piperacillin in combination with the compound” value amounted to 2.5 µg/mL in the test on E. coli 250HT22 (Tem2) (compound at 5 mg/l, Trial 3, 250HT22 Tem2); 1.2 µg/mL in test [1] (compound at 5 mg/l, Trial 1, 011GO66 peniR); 10 µg/mL in [2] (compound at 5 mg/l, Trial 9, 293HT6 Class); 1.2 µg/mL in the test with E. coli 250HT21 (Tem1) (compound at 5 mg/l, Trial 2, 250HT21 Tem1); 20 µg/mL in the test with E. coli 250BE1 (SHV4) (compound at 5 mg/l, Trial 7, 250BE1 SHV4); 20 µg/mL in the test on E. coli 250HT26 (SHV1) (compound at 5 mg/l, Trial 6, 250HT26 SHV1). Besides, the “MIC of Piperacillin in combination with the compound” value in the test with E. coli 250SJ1 (Tem7) (compound at 5 mg/l, Trial 5, 250SJ1 Tem7) was found to be 5 µg/mL; in test [3] (compound at 5 mg/l, Trial 8, 250HT23 Class D) it was 10 µg/mL; in the test on E. coli 250CF1 (Tem3) (compound at 5 mg/l, Trial 4, 250CF1 Tem3), 1.2 µg/mL.
`CO/N=C(\C(=O)N[C@@H]1C(=O)N2C(C(=O)O)=C(COC(C)=O)CS[C@H]12)c1csc(N)n1` [Cefotaxime, cefotaxime, reference compound]: the MIC was at most 0.04 µg/mL with E. coli 250HT22 (Tem2) (Trial 3, 250HT22 E. coli Tem2, read-out: MIC of Cefotaxime alone); 40 µg/mL in test [4] (Trial 12, 391HT8 P. aeruginosa PSE, read-out: MIC of Cefotaxime alone); 1.2 µg/mL in [1] (Trial 1, 011GO66 S. aureus PeniR, read-out: MIC of Cefotaxime alone); 40 µg/mL in test [5] (Trial 11, 391HT7 P. aeruginosa PSE, read-out: MIC of Cefotaxime alone); 0.3 µg/mL with Serratia 301HT6 (read-out: MIC of Cefotaxime alone); above 40 µg/mL in test [2] (Trial 9, 293HT6 E. cloacae Class C, read-out: MIC of Cefotaxime alone). The MIC in the test on E. coli 250HT21 (Tem1) (Trial 2, 250HT21 E. coli Tem1, read-out: MIC of Cefotaxime alone) was at most 0.04 µg/mL; in the test with E. coli 250BE1 (SHV4) (Trial 7, 250BE1 E. coli SHV4, read-out: MIC of Cefotaxime alone), 40 µg/mL; with E. coli 250HT26 (SHV1) (Trial 6, 250HT26 E. coli SHV1, read-out: MIC of Cefotaxime alone), 0.6 µg/mL; in the test on E. coli 250SJ1 (Tem7) (Trial 5, 250SJ1 E. coli Tem7, read-out: MIC of Cefotaxime alone), 0.08 µg/mL; in [3] (Trial 8, 250HT23 E. coli Class D, read-out: MIC of Cefotaxime alone), 0.08 µg/mL; in the test with E. coli 250CF1 (Tem3) (Trial 4, 250CF1 E. coli Tem3, read-out: MIC of Cefotaxime alone) it was above 40 µg/mL.
For the compound `CCN1CCN(C(=O)N[C@@H](C(=O)N[C@@H]2C(=O)N3[C@@H]2SC(C)(C)[C@@H]3C(=O)O)c2ccccc2)C(=O)C1=O` [Piperacillin, piperacillin, reference compound], the MIC in the test with E. coli 250HT22 (Tem2) (Trial 3, 250HT22 Tem2, read-out: MIC of Piperacillin alone) is above 40 µg/mL; in test [4] (Trial 12, 391HT8 PSE, read-out: MIC of Piperacillin alone), above 40 µg/mL; in [1] (Trial 1, 011GO66 peniR, read-out: MIC of Piperacillin alone), 10 µg/mL; in test [5] (Trial 11, 391HT7 PSE, read-out: MIC of Piperacillin alone), above 40 µg/mL; in the test on Serratia 301HT6 (read-out: MIC of Piperacillin alone), 5 µg/mL; in [2] (Trial 9, 293HT6 Class, read-out: MIC of Piperacillin alone) it was above 40 µg/mL. Further, the MIC with E. coli 250HT21 (Tem1) (Trial 2, 250HT21 Tem1, read-out: MIC of Piperacillin alone) is above 40 µg/mL; with E. coli 250BE1 (SHV4) (Trial 7, 250BE1 SHV4, read-out: MIC of Piperacillin alone), above 40 µg/mL; with E. coli 250HT26 (SHV1) (Trial 6, 250HT26 SHV1, read-out: MIC of Piperacillin alone), above 40 µg/mL; with E. coli 250SJ1 (Tem7) (Trial 5, 250SJ1 Tem7, read-out: MIC of Piperacillin alone), above 40 µg/mL; in [3] (Trial 8, 250HT23 Class D, read-out: MIC of Piperacillin alone) it was above 40 µg/mL; with E. coli 250CF1 (Tem3) (Trial 4, 250CF1 Tem3, read-out: MIC of Piperacillin alone) it was above 40 µg/mL.
